Data taken from the NIST ThermoML archive (doi:10.1021/je400841s).

Conditions: 101.33 kPa, Liquid; for mass density: Vibrating tube method; for viscosity: Concentric cylinders viscometry; for electrical conductivity: impedancemetry (AC impedance bridge)

CCn1cc[n+](C)c1.O=S(=O)([O-])C(F)(F)F [1-ethyl-3-methylimidazolium trifluoromethanesulfonate]
Conditions | electrical conductivity [S/m] | mass density [kg/m3] | viscosity [mPa·s]
293.15 K | – | 1382.9 | –
298.15 K | 0.913 | – | 45.9
303.14 K | – | 1374.6 | –
313.14 K | – | 1366.3 | –
313.15 K | 1.45 | – | 27.6
323.14 K | – | 1358 | –
323.15 K | 1.74 | – | 20.2
333.14 K | – | 1349.8 | –
333.15 K | 2.19 | – | 15.5
343.14 K | – | 1341.7 | –
343.15 K | 2.6 | – | 12.3
353.14 K | – | 1333.7 | –

CCn1cc[n+](C)c1.COS(=O)(=O)[O-] [1-ethyl-3-methylimidazolium methylsulfate]
Conditions | electrical conductivity [S/m] | mass density [kg/m3] | viscosity [mPa·s]
298.03 K | – | 1282.1 | –
298.15 K | 0.602 | – | 74.3
303.15 K | 0.723 | – | –
312.67 K | – | 1272.2 | –
313.15 K | 1.02 | – | 40.6
322.6 K | – | 1265.8 | –
323.15 K | 1.39 | – | 28.8
332.35 K | – | 1259.4 | –
333.15 K | 1.84 | – | 21.2
342.22 K | – | 1252.9 | –
343.15 K | 2.34 | – | 16.1

CCCCn1cc[n+](C)c1.O=S(=O)([O-])C(F)(F)F [1-butyl-3-methylimidazolium trifluoromethanesulfonate]
Conditions | electrical conductivity [S/m] | mass density [kg/m3] | viscosity [mPa·s]
297.98 K | – | 1294.7 | –
298.15 K | 0.301 | – | 86.6
302.79 K | – | 1291.3 | –
303.15 K | 0.378 | – | –
313 K | – | 1283.1 | –
313.15 K | 0.553 | – | 45.6
323.12 K | – | 1275.2 | –
323.15 K | 0.763 | – | 31.6
333.12 K | – | 1267.4 | –
333.15 K | 1.01 | – | 23
343.12 K | – | 1259.8 | –
343.15 K | 1.29 | – | 17.2

CCCCn1cc[n+](C)c1.COS(=O)(=O)[O-] [1-butyl-3-methylimidazolium methyl sulfate]
Conditions | electrical conductivity [S/m] | mass density [kg/m3] | viscosity [mPa·s]
298.08 K | – | 1210.5 | –
298.15 K | 0.126 | – | 223
302.78 K | – | 1207.6 | –
303.15 K | 0.16 | – | –
312.49 K | – | 1201.4 | –
313.15 K | 0.254 | – | 101
322.23 K | – | 1195 | –
323.15 K | 0.382 | – | 64.3
332.16 K | – | 1188.7 | –
333.15 K | 0.551 | – | 43.6
341.68 K | – | 1182.9 | –
343.15 K | 0.757 | – | 31.1
